Laboratory results: patent EP0582261A1, “Cephalosporin compounds and processes for the preparation thereof” (LUCKY LTD., priority 1992, dated 1994)
Values after ≈ are worked out from the molar mass of the structure shown.

Key:
Assay in all cases: MIC, two-fold dilution method on Müller-Hinton agar
Format in all cases: cell-based
Conditions in all cases: incubated at 37°C for 20 hours
[1] = tested on: Staphylococcus aureus ATCC 6538p
Description: (§1) The same procedures as described in Example 163 were repeated using 7-amino-1,8-dimethyl[1,3]imidazo[1,2-c] pyrimidine-5-thione prepared in Preparation Example 36 in place of 7-amino-1-methyl[1,3]imidazo[1,2-c]pyrimidine-5-thione to yield 190mg and 180mg of the title compound(a) and (b), respectively, as white solids.
(§2) These MIC values were taken by employing a two-fold dilution method: that is, two-fold serial dilutions of each of the test compounds were made and dispersed in a Müller-Hinton agar medium; 2µl of the standard test strain which had the 10⁷ CFU(Colony Forming Unit) per ml was inoculated on the medium; and these were incubated at 37°C for 20 hours.

[2] = tested on: Staphylococcus aureus ATCC 10537
Description: as §1, §2

[3] = tested on: Proteus vulgaris ATCC 6059
Description: as §1, §2

[4] = tested on: Morganella morganii ATCC 8076h
Description: as §1, §2

[5] = tested on: Streptococcus faecalis ATCC 29212
Description: as §1, §2

[6] = tested on: Providencia rettgeri ATCC 9250
Description: as §1, §2

[7] = tested on: Acinetobacter calcoaceticus ATCC 15473
Description: as §1, §2

[8] = tested on: Salmonella typhimurium ATCC 14028
Description: as §1, §2

[9] = tested on: Bacillus cereus ATCC 11778
Description: as §1, §2

[10] = tested on: Escherichia coli ATCC 10536
Description: as §1, §2

[11] = tested on: Shigella sonnei ATCC 11060
Description: as §1, §2

[12] = tested on: Escherichia coli ATCC 25922
Description: as §1, §2

[13] = tested on: Enterobacter cloacae ATCC 27508
Description: as §1, §2

[14] = tested on: Enterobacter aerogenes ATCC 29751
Description: as §1, §2

[15] = tested on: Staphylococcus epidermidis ATCC 12228
Description: as §1, §2

[16] = tested on: Shigella flexneri ATCC 11836
Description: as §1, §2

[17] = tested on: Citrobacter freundii ATCC 8090
Description: as §1, §2

[18] = tested on: Micrococcus luteus ATCC 9341
Description: as §1, §2

[19] = tested on: Pseudomonas aeruginosa ATCC 10145
Description: as §1, §2

[20] = tested on: Serratia marcescens ATCC 27117
Description: as §1, §2

[21] = tested on: Bacillus megaterium ATCC 9885
Description: as §1, §2

[22] = tested on: Pseudomonas aeruginosa ATCC 25619
Description: as §1, §2

[23] = tested on: Pseudomonas aeruginosa ATCC 27853
Description: as §1, §2

[24] = tested on: Klebsiella pneumoniae ATCC 10031
Description: as §1, §2

[25] = tested on: Proteus mirabilis ATCC 25933
Description: as §1, §2

Molecule	MIC values against the standard strains [1]	MIC values against the standard strains [2]	MIC values against the standard strains [3]	MIC values against the standard strains [4]	MIC values against the standard strains [5]	MIC values against the standard strains [6]	MIC values against the standard strains [7]	MIC values against the standard strains [8]	MIC values against the standard strains [9]	MIC values against the standard strains [10]	MIC values against the standard strains [11]	MIC values against the standard strains [12]	MIC values against the standard strains [13]	MIC values against the standard strains [14]	MIC values against the standard strains [15]	MIC values against the standard strains [16]	MIC values against the standard strains [17]	MIC values against the standard strains [18]	MIC values against the standard strains [19]	MIC values against the standard strains [20]	also measured
7-[(Z)-2-(2-aminothiazol-4-yl)-2-(methoxy-imino)acetamido]-3-(7-amino-1-methyl[1,2,4]triazolo[1,5-c]pyrimidinium-5-yl)thiomethyl-3-cephem-4-carboxylate [Exp. 46]	0.13 µg/mL	0.063 µg/mL	0.063 µg/mL	≤0.008 µg/mL	16 µg/mL	≤0.008 µg/mL	2 µg/mL	0.063 µg/mL	8 µg/mL	0.031 µg/mL	0.063 µg/mL	0.031 µg/mL	≤0.008 µg/mL	0.13 µg/mL	0.063 µg/mL	0.016 µg/mL	0.031 µg/mL	0.016 µg/mL	4 µg/mL	0.13 µg/mL	MIC values against the standard strains [21]: 0.063 µg/mL; MIC values against the standard strains [22]: 2 µg/mL; MIC values against the standard strains [23]: 2 µg/mL; MIC values against the standard strains [24]: ≤0.008 µg/mL; MIC values against the standard strains [25]: 0.13 µg/mL
7-[(Z)-2-(5-amino-1,2,4-thiadiazol-3-yl)-2-(ethoxyimino)acetamido]-3-(7-amino-1-methyl[1,2,4] triazolo[1,5-c]pyrimidinium-5-yl)thiomethyl-3-cephem-4-carboxylate [Exp. 72]	0.25 µg/mL	0.13 µg/mL	0.5 µg/mL	≤0.008 µg/mL	8 µg/mL	≤0.008 µg/mL	1 µg/mL	0.25 µg/mL	16 µg/mL	0.063 µg/mL	0.063 µg/mL	0.063 µg/mL	≤0.008 µg/mL	0.25 µg/mL	0.25 µg/mL	0.031 µg/mL	0.063 µg/mL	0.016 µg/mL	4 µg/mL	0.25 µg/mL	MIC values against the standard strains [21]: 0.063 µg/mL; MIC values against the standard strains [22]: 1 µg/mL; MIC values against the standard strains [23]: 4 µg/mL; MIC values against the standard strains [24]: 0.016 µg/mL; MIC values against the standard strains [25]: 0.25 µg/mL
CCC(C)(O/N=C(\C(=O)NC1C(=O)N2C(C(=O)[O-])=C(CSc3nc(N)cc4n3nc(N)[n+]4C)CS[C@H]12)c1csc(N)n1)C(=O)O (stereo partly drawn) [Exp. 96(b), 7-[(Z)-2-(2-aminothiazol-4-yl)-2-(2-carboxybut-2-oxyimino)acetamido]-3-(2,7-diamino-1-methyl[1,2,4]triazolo[1,5-c]pyrimidinium-5-yl)thiomethyl-3-cephem-4-carboxylate]	1 µg/mL (≈ 1.48 µM)	1 µg/mL (≈ 1.48 µM)	0.063 µg/mL (≈ 0.093 µM)	≤0.008 µg/mL	16 µg/mL (≈ 23.6 µM)	≤0.008 µg/mL	4 µg/mL (≈ 5.9 µM)	0.25 µg/mL (≈ 0.369 µM)	16 µg/mL (≈ 23.6 µM)	0.13 µg/mL (≈ 0.192 µM)	0.13 µg/mL (≈ 0.192 µM)	0.13 µg/mL (≈ 0.192 µM)	0.063 µg/mL (≈ 0.093 µM)	0.5 µg/mL (≈ 0.738 µM)	0.5 µg/mL (≈ 0.738 µM)	0.031 µg/mL (≈ 0.0457 µM)	0.13 µg/mL (≈ 0.192 µM)	0.016 µg/mL (≈ 0.0236 µM)	2 µg/mL (≈ 2.95 µM)	0.13 µg/mL (≈ 0.192 µM)	MIC values against the standard strains [21]: 0.25 µg/mL (≈ 0.369 µM); MIC values against the standard strains [22]: 0.5 µg/mL (≈ 0.738 µM); MIC values against the standard strains [23]: 1 µg/mL (≈ 1.48 µM); MIC values against the standard strains [24]: ≤0.008 µg/mL; MIC values against the standard strains [25]: 0.13 µg/mL (≈ 0.192 µM)
